molecular target: human sphingosine-1-phosphate receptor 1 (S1P1) (Homo sapiens, UniProt P21453); test: Inhibition of cAMP production (HTRF cAMP HiRange), S1P1 CHO-K1 cells; assay type: cell-based; conditions: inhibition of cAMP production, S1P1; read-out: hS1P1 CAMP pEC50 (converted)
Method in brief: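 CHO-K1 cells co-expressing human S1P1 (C-terminal ProLink tag) and EA-β-arrestin2, plated overnight; after 30 min compound incubation at 37 °C, intracellular cAMP measured by HTRF TR-FRET following 1 h at room temperature. Values normalized to fingolimod.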

Chain of human sphingosine-1-phosphate receptor 1 (S1P1) (P21453 whole entry): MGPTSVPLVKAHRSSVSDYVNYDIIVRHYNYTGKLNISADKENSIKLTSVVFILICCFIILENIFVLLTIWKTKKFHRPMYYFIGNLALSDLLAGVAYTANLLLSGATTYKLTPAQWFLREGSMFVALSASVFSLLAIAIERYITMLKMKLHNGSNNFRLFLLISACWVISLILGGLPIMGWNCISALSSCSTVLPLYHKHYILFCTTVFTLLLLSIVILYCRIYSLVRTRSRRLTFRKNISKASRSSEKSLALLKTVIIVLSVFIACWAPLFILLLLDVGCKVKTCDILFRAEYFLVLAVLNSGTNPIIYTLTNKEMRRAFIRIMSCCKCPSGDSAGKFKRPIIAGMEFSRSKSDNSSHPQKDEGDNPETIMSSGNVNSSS

| EC50 [nM] | Structure (SMILES) |
| --- | --- |
| < 316 | COc1cccnc1-c1nc(-c2ccc3c(c2)nnn3C(C)C)no1 [Compound 612, 3-(1-isopropyl-1H-benzo[d][1,2,3]triazol-5-yl)-5-(3-methoxy-pyridin-2-yl)-1,2,4-oxadiazole] |
| > 316 | CC(C)n1nnc2cc(-c3nc4c(o3)CCCc3ccccc3-4)ccc21 [Compound 434, 4-[1-(propan-2-yl)-1H-1,2,3-benzotriazol-5-yl]-5-oxa-3-azatricyclo[8.4.0.0^2,6] tetradeca-1(14),2(6),3,10,12-pentaene] |
| < 316 | Cc1cn(C)nc1-c1noc(-c2ccc3c(c2)nnn3C(C)C)n1 [Compound 519, 5-[3-(1,4-dimethyl-1H-pyrazol-3-yl)-1,2,4-oxadiazol-5-yl]-1-(propan-2-yl)-1H-1,2,3-benzotriazole] |
| > 316 | CC(=O)Nc1ccccc1-c1coc(-c2ccc3c(c2)nnn3C(C)C)n1 [Compound 458, N-(2-{2-[1-(propan-2-yl)-1H-1,2,3-benzotriazol-5-yl]-1,3-oxazol-4-yl}phenyl)acetamide] |
| < 316 | N#Cc1cc(-c2nc(-c3ccc4sc(N)nc4c3)no2)ccc1NCC1CC1 [Compound 440, 5-(3-(2-aminobenzo[d]thiazol-5-yl)-1,2,4-oxadiazol-5-yl)-2-((cyclopropylmethyl)amino)benzonitrile] |
| < 316 | COc1ccc2nc(-c3ccc4c(c3)nnn4C(C)C)oc2c1 [Compound 426, 2-(1-isopropyl-1H-benzo[d][1,2,3]triazol-5-yl)-6-methoxy-benzo[d]oxazole] |

same assay, conditions: inhibition of cAMP production; potency; read-out: hS1P1 CAMP pEC50 (converted)

| EC50 [nM] | Structure (SMILES) |
| --- | --- |
| < 316 | COc1ccccc1-c1noc(-c2ccc3c(c2)nnn3C(C)C)n1 [Compound 286, 5-(1-isopropyl-1H-benzo[d][1,2,3]triazol-5-yl)-3-(2-methoxy-phenyl)-1,2,4-oxadiazole] |
| < 316 | CC(C)Oc1ccc(-c2nc(-c3ccc4c(c3)nnn4C3CCCC3)no2)cc1C(F)(F)F [Compound 14, 3-(1-cyclopentyl-1H-benzo[d][1,2,3]triazol-5-yl)-5-(4-isopropoxy-3-(trifluoromethyl)phenyl)-1,2,4-oxadiazole] |
| < 316 | CC(C)n1nnc2cc(-c3noc(-c4ccccc4F)n3)ccc21 [Compound 307, 5-(2-fluorophenyl)-3-(1-isopropyl-1H-benzo[d][1,2,3]triazol-5-yl)-1,2,4-oxadiazole] |
| > 316 | CC(C)Oc1ccccc1-c1noc(-c2ccc3c(ccn3C(C)C)c2)n1 [Compound 324, 3-(2-isopropoxyphenyl)-5-(1-isopropyl-1H-indol-5-yl)-1,2,4-oxadiazole] |
| < 316 | CCC1(CC)CC(=O)c2cc(-c3nc(-c4ccnc(F)c4)no3)ccc2O1 [Compound 146, 2,2-diethyl-6-(3-(2-fluoropyridin-4-yl)-1,2,4-oxadiazol-5-yl)chroman-4-one] |
| > 316 | CCC1(CC)CC(=O)c2cc(-c3nc(-c4cccc(OC)c4)no3)ccc2O1 [Compound 71, 2,2-diethyl-6-(3-(3-methoxyphenyl)-1,2,4-oxadiazol-5-yl)chroman-4-one] |
| > 316 | COc1ccc(-c2nc(-c3ccc4c(c3)nnn4C(C)C)no2)cc1 [Compound 69, 3-(1-isopropyl-benzotriazol-5-yl)-5-(4-methoxyphenyl)-1,2,4-oxadiazole] |
| < 316 | CC(F)(F)CNc1ccc(-c2nc(-c3ccc4c(c3)CCC(=O)N4)no2)cc1C#N [Compound 347, 2-[(2,2-difluoropropyl)amino]-5-[3-(2-oxo-1,2,3,4-tetrahydro-quinolin-6-yl)-1,2,4-oxadiazol-5-yl]benzonitrile] |
| < 316 | CCC1(CC)CC(=O)c2cc(-c3nc(-c4ccc(C(=O)NC)cc4)no3)ccc2O1 [Compound 185, 4-(5-(2,2-diethyl-4-oxochroman-6-yl)-1,2,4-oxadiazol-3-yl)-N-methylbenzamide] |
| < 316 | CC(=O)Nc1ccc(-c2noc(-c3ccc(NC(C)C)c(C#N)c3)n2)cc1 [Compound 316, N-(4-(5-(3-cyano-4-(isopropylamino)phenyl)-1,2,4-oxadiazol-3-yl)phenyl)acetamide] |
| < 316 | N#Cc1cc(-c2nnc(-c3ccc4[nH]ncc4c3)o2)ccc1NCCF [Compound 353, 2-[(2-fluoroethyl)amino]-5-[5-(1H-indazol-5-yl)-1,3,4-oxadiazol-2-yl]benzonitrile] |
| > 316 | CC(C)n1nnc2cc(-c3ncc(-c4cccc(F)c4)s3)ccc21 [Compound 110, 5-(3-fluorophenyl)-2-(1-isopropyl-1H-benzo[d][1,2,3]triazol-5-yl)thiazole] |
| < 316 | CCC1(CC)CC(=O)c2cc(-c3nnc(-c4cccnc4)s3)ccc2O1 [Compound 104, 2,2-diethyl-6-(5-(pyridin-3-yl)-1,3,4-thiadiazol-2-yl)chroman-4-one] |
| > 316 | CCC1(CC)CC(=O)c2cc(-c3nc(-c4ccc(NC)cc4)no3)ccc2O1 [Compound 153, 2,2-diethyl-6-(3-(4-(methylamino)phenyl)-1,2,4-oxadiazol-5-yl)chroman-4-one] |
| < 316 | Brc1ccccc1-c1nc(-c2ccc3c(c2)nnn3C2CCCCC2)no1 [Compound 115, 5-(2-bromophenyl)-3-(1-cyclohexyl-1H-benzo[d][1,2,3]triazol-5-yl)-1,2,4-oxadiazole] |
| > 316 | Cc1ccc(-c2noc(-c3ccc4c(c3)nnn4C(C)C)n2)cn1 [Compound 236, 5-[3-(6-methylpyridin-3-yl)-1,2,4-oxadiazol-5-yl]-1-(propan-2-yl)-1H-1,2,3-benzotriazole] |
| < 316 | CCC1(CC)CC(=O)c2cc(-c3nc(-c4ccncc4OC)no3)ccc2O1 [Compound 212, 2,2-diethyl-6-(3-(3-methoxypyridin-4-yl)-1,2,4-oxadiazol-5-yl)chroman-4-one] |

| EC50 [nM] | Structure (SMILES) |
| --- | --- |
| > 316 | COc1cccc(F)c1-c1noc(-c2ccc3c(cnn3C(C)C)c2)n1 [Compound 338, 3-(2-fluoro-6-methoxy-phenyl)-5-(1-isopropyl-indazol-5-yl)-1,2,4-oxadiazole] |
| > 316 | Cc1ccncc1-c1nc(-c2ccc3c(c2)nnn3C(C)C)no1 [Compound 100, 3-(1-isopropyl-1H-benzo[d][1,2,3]triazol-5-yl)-5-(4-methyl-pyridin-3-yl)-1,2,4-oxadiazole] |
| > 316 | CCC1(CC)CC(=O)c2cc(-c3nnc(-c4cccnc4)o3)ccc2O1 [Compound 28, 2,2-diethyl-6-(5-(pyridin-3-yl)-1,3,4-oxadiazol-2-yl)chroman-4-one] |
| < 316 | N#Cc1cc(-c2nc(-c3ccc4c(c3)CCC(=O)N4)no2)ccc1NCC1CC1 [Compound 302, 2-((cyclopropyl-methyl)amino)-5-(3-(2-oxo-1,2,3,4-tetrahydroquinolin-6-yl)-1,2,4-oxadiazol-5-yl)benzonitrile] |
| > 316 | Cc1ccccc1-c1noc(-c2ccc3c(c2)nnn3CC2CC2)n1 [Compound 288, 1-(cyclopropylmethyl)-5-[3-(2-methylphenyl)-1,2,4-oxadiazol-5-yl]-1H-1,2,3-benzotriazole] |
| > 316 | CC(C)n1nnc2cc(-c3nc(-c4ccc(Cl)s4)no3)ccc21 [Compound 170, 5-[3-(5-chlorothiophen-2-yl)-1,2,4-oxadiazol-5-yl]-1-(propan-2-yl)-1H-1,2,3-benzotriazole] |
| > 316 | O=C1CC2(CCCC2)Oc2ccc(-c3nc(-c4ccncc4)no3)cc21 [Compound 176, 6-[3-(pyridin-4-yl)-1,2,4-oxadiazol-5-yl]-3,4-dihydrospiro[1-benzopyran-2,1′-cyclopentane]-4-one] |
| > 316 | Cc1ccc(-c2noc(-c3ccc4c(c3)nnn4C3CCCCC3)n2)cc1 [Compound 117, 1-cyclohexyl-5-[3-(4-methylphenyl)-1,2,4-oxadiazol-5-yl]-1H-1,2,3-benzotriazole] |
| < 316 | CCC1(CC)CC(=O)c2cc(-c3nc(-c4ccc(O)cc4)no3)ccc2O1 [Compound 72, 2,2-diethyl-6-[3-(4-hydroxyphenyl)-1,2,4-oxadiazol-5-yl]chroman-4-one] |
| < 316 | COc1ccccc1-c1nc(-c2ccc3c(c2)nnn3C(C)C)ns1 [Compound 138, 5-[5-(2-methoxyphenyl)-1,2,4-thiadiazol-3-yl]-1-(propan-2-yl)-1H-1,2,3-benzotriazole] |
| > 316 | Cc1cccc(C)c1-c1noc(-c2ccc3c(c2)nnn3C(C)C)n1 [Compound 243, 3-(2,6-dimethyl-phenyl)-5-(1-isopropyl-1H-benzo[d][1,2,3]triazol-5-yl)-1,2,4-oxadiazole] |
| > 316 | CCC1(CC)CC(=O)c2cc(-c3nc(-c4ccncc4O)no3)ccc2O1 [Compound 312, 2,2-diethyl-6-(3-(3-hydroxypyridin-4-yl)-1,2,4-oxadiazol-5-yl)chroman-4-one] |
| < 316 | FC(F)Oc1ccc(-c2noc(-c3ccc4c(c3)nnn4C3CCCC3)n2)cc1 [Compound 80, 1-cyclopentyl-5-{3-[4-(difluoromethoxy)phenyl]-1,2,4-oxadiazol-5-yl}-1H-1,2,3-benzotriazole] |
| > 316 | c1cc(-c2noc(-c3ccc4c(c3)nnn4C3CC3)n2)ccn1 [Compound 295, 1-cyclopropyl-5-[3-(pyridin-4-yl)-1,2,4-oxadiazol-5-yl]-1H-1,2,3-benzotriazole] |
| > 316 | CC(C)n1nnc2cc(-c3noc(-c4ccccc4OC(F)(F)F)n3)ccc21 [Compound 240, 3-(1-isopropyl-1H-benzo[d][1,2,3]triazol-5-yl)-5-(2-(trifluoro-methoxy)phenyl)-1,2,4-oxadiazole] |
| > 316 | O=C(O)CCn1nnc2cc(-c3noc(-c4ccccc4Br)n3)ccc21 [Compound 134, 3-(5-(5-(2-bromophenyl)-1,2,4-oxadiazol-3-yl)-1H-benzo[d][1,2,3]triazol-1-yl)propanoic acid] |
| < 316 | CC(C)n1nnc2cc(-c3nc(-c4ccccc4OC(F)(F)F)no3)ccc21 [Compound 132, 5-(1-isopropyl-1H-benzo[d][1,2,3]triazol-5-yl)-3-(2-(trifluoro-methoxy)phenyl)-1,2,4-oxadiazole] |

Source: patent US20230114241A1, “METHODS OF TREATING EPILEPSY USING THE SAME” (Trevena, Inc., priority 2019, published 2023)
